Our source for the TGI and GI50 values is PubChem BioAssay (NCI).

Some test systems named below: LOX IMVI melanoma; A549 NSCLC; SNB-19 CNS; T-47D breast; BT-549 breast; HOP-62 NSCLC; NCI-H522 lung; NCI-H460 lung; HCT-116 colon; K-562 leukemia.
Common to all, as to test: NCI-60 cell line screen, 48 h

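96-well plates; 48 h exposure; 5 concentrations. Endpoints by linear interpolation between flanking doses. Not reached: highest tested concentration assigned. GI50 marks 50% less growth. TGI: total growth inhibition.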

With `CC1=CC(=O)CC(C)(C)C1(O)/C=C/C(C)=C/C(=O)O` (stereo not given), the TGI in the assay on LOX IMVI melanoma, in the assay with A549 NSCLC, with SNB-19 CNS, in the assay with T-47D breast, with BT-549 breast and with HOP-62 NSCLC was greater than 100 µM throughout. For the same molecule, the TGI in the assay with NCI-H522 lung, in the assay on NCI-H460 lung, in the assay on HCT-116 colon and with K-562 leukemia was greater than 100 µM in each case.

Turning to `Nc1ccccc1SC(CC(=O)c1ccccc1)c1ccc([N+](=O)[O-])cc1` (stereo not given), the GI50 in the assay on LOX IMVI melanoma is 1.91 µM; with A549 NSCLC, 16.6 µM; with SNB-19 CNS it was 12.2 µM; in the assay with T-47D breast, 12.1 µM; with BT-549 breast it was 13.6 µM; in the assay on HOP-62 NSCLC it was 14.5 µM. The GI50 in the assay with NCI-H522 lung was 12.9 µM; in the assay with NCI-H460 lung, 17.3 µM; with HCT-116 colon, 1.67 µM; with K-562 leukemia, 3.91 µM. For the same molecule, the TGI stood at 4.15 µM with LOX IMVI melanoma; 32.6 µM with A549 NSCLC; 24.6 µM with SNB-19 CNS; 36.3 µM with T-47D breast; 26.6 µM in the assay on BT-549 breast; 28 µM in the assay with HOP-62 NSCLC. For the same molecule, the TGI with NCI-H522 lung was determined as 27 µM; in the assay with NCI-H460 lung, 36 µM; with HCT-116 colon, 3.16 µM; with K-562 leukemia it was 14.8 µM.

Consider `CNC1C(O)C(OC2C(N)CC(N)C(OC3OC(CN)=CCC3N)C2O)OCC1(C)O` (stereo not given), for which the TGI in the assay on LOX IMVI melanoma, in the assay with A549 NSCLC, in the assay with SNB-19 CNS, in the assay with T-47D breast, in the assay on BT-549 breast and in the assay on HOP-62 NSCLC was greater than 100 µM in each case. The TGI in the assay on NCI-H522 lung, with NCI-H460 lung, in the assay on HCT-116 colon and in the assay with K-562 leukemia was greater than 100 µM throughout.

On to `C/C1=C/C(=O)O[C@@H]2C[C@@H](CC[C@H](C)/C=C\C=C\CC1)O[C@@](O)([C@@H]1CSC(=O)N1CO)C2`, for which the GI50 with LOX IMVI melanoma is 0.0228 µM; in the assay on A549 NSCLC, 0.0465 µM; with SNB-19 CNS, 0.0833 µM; with T-47D breast, 0.0593 µM; in the assay on BT-549 breast, 0.0592 µM; in the assay with HOP-62 NSCLC, 0.0254 µM. Besides, the GI50 with NCI-H522 lung was 0.0371 µM; with NCI-H460 lung, 0.241 µM; in the assay on HCT-116 colon, 0.194 µM; in the assay on K-562 leukemia it was 0.213 µM. For the same molecule, the TGI with LOX IMVI melanoma was 11.1 µM; with A549 NSCLC, greater than 46 µM; in the assay with SNB-19 CNS it was 0.671 µM; with T-47D breast, 47.6 µM; in the assay on BT-549 breast, 20 µM; in the assay on HOP-62 NSCLC, 0.176 µM. Further, the TGI with NCI-H522 lung was 2.84 µM; in the assay with NCI-H460 lung, 34.1 µM; with HCT-116 colon, 20 µM; in the assay on K-562 leukemia it was 27.1 µM.

Turning to `O=C1/C=C/[C@@H](O)[C@@H]2C[C@@H](O)C[C@H]2/C=C/CCC[C@H](CCc2ccc(C(F)(F)F)cc2)O1`, the GI50 in the assay on LOX IMVI melanoma is 0.161 µM; in the assay with A549 NSCLC, 0.305 µM; in the assay on SNB-19 CNS, 0.383 µM; in the assay with T-47D breast it was 0.318 µM; with BT-549 breast, 0.355 µM; with HOP-62 NSCLC, 0.328 µM. In addition, the GI50 is 0.282 µM in the assay on NCI-H522 lung, 0.388 µM with NCI-H460 lung, 0.251 µM with HCT-116 colon and 0.444 µM in the assay with K-562 leukemia. For the same molecule, the TGI is 0.423 µM with LOX IMVI melanoma; greater than 100 µM in the assay on A549 NSCLC; greater than 100 µM with SNB-19 CNS; 59.8 µM in the assay on T-47D breast; 10.7 µM in the assay on BT-549 breast; 11 µM with HOP-62 NSCLC. Further, the TGI is 0.775 µM in the assay with NCI-H522 lung, greater than 55.4 µM with NCI-H460 lung, 0.607 µM in the assay with HCT-116 colon and greater than 100 µM in the assay on K-562 leukemia.

In the case of `NC(=O)C1c2ccccc2C=Cc2ccccc21`, the GI50 with LOX IMVI melanoma, with A549 NSCLC, in the assay with SNB-19 CNS, in the assay on T-47D breast, with BT-549 breast and in the assay on HOP-62 NSCLC was greater than 100 µM throughout. The GI50 in the assay with NCI-H522 lung, in the assay on NCI-H460 lung, in the assay on HCT-116 colon and in the assay on K-562 leukemia was greater than 100 µM throughout. In addition, the TGI with LOX IMVI melanoma, in the assay with A549 NSCLC, in the assay on SNB-19 CNS, in the assay on T-47D breast, in the assay on BT-549 breast and in the assay on HOP-62 NSCLC was greater than 100 µM throughout. The TGI with NCI-H522 lung, in the assay with NCI-H460 lung, in the assay with HCT-116 colon and in the assay on K-562 leukemia was greater than 100 µM in each case.

Regarding `CCCCCCCCCCCCNC(=O)[C@H]1CSC(c2cc3ccccc3s2)N1` (stereo not given in full), the GI50 in the assay with LOX IMVI melanoma is 0.534 µM; in the assay on A549 NSCLC it was 6.01 µM; in the assay on SNB-19 CNS, 5.47 µM; in the assay with T-47D breast, 5.5 µM; with BT-549 breast, 1.01 µM; in the assay with HOP-62 NSCLC it was 0.732 µM. For the same molecule, the GI50 in the assay on NCI-H522 lung was 5.11 µM; in the assay with NCI-H460 lung, 1.02 µM; in the assay with HCT-116 colon, 1.06 µM; with K-562 leukemia, 0.717 µM. Moreover, the TGI came to 1.05 µM in the assay with LOX IMVI melanoma; 11.3 µM with A549 NSCLC; 11.2 µM in the assay with SNB-19 CNS; 12.3 µM with T-47D breast; 4.11 µM with BT-549 breast; 1.55 µM in the assay on HOP-62 NSCLC. The TGI came to 11.1 µM with NCI-H522 lung, 2.5 µM in the assay on NCI-H460 lung, 3.42 µM in the assay on HCT-116 colon and 1.62 µM with K-562 leukemia.

As for `CN[C@@H](C)C(=O)N[C@H]1CN(C(=O)CC(C)C)CC[C@H]2CC[C@@H](C(=O)NC(c3ccccc3)c3ccccc3)N2C1=O`, the GI50 in the assay with LOX IMVI melanoma is greater than 100 µM; in the assay on A549 NSCLC, greater than 100 µM; with SNB-19 CNS, greater than 100 µM; in the assay with T-47D breast it was greater than 100 µM; in the assay on BT-549 breast, 0.231 µM; with HOP-62 NSCLC, greater than 90.9 µM. In addition, the GI50 was 17.6 µM in the assay on NCI-H522 lung, greater than 100 µM in the assay with NCI-H460 lung, greater than 100 µM with HCT-116 colon and 97.9 µM with K-562 leukemia. Besides, the TGI with LOX IMVI melanoma, in the assay on A549 NSCLC, with SNB-19 CNS, with T-47D breast, in the assay with BT-549 breast and in the assay with HOP-62 NSCLC was greater than 100 µM in each case. In addition, the TGI in the assay with NCI-H522 lung was greater than 78.9 µM; with NCI-H460 lung it was greater than 100 µM; in the assay on HCT-116 colon, greater than 100 µM; in the assay with K-562 leukemia it was greater than 100 µM.

Consider `Cc1cccc(-c2nn3c(c2-c2ccnc4ccc(C(N)=O)cc24)CCC3)n1`, for which the GI50 was greater than 100 µM with LOX IMVI melanoma; greater than 100 µM with A549 NSCLC; greater than 100 µM in the assay on SNB-19 CNS; 57.6 µM in the assay with T-47D breast; greater than 100 µM in the assay on BT-549 breast; greater than 100 µM with HOP-62 NSCLC. Further, the GI50 with NCI-H522 lung, in the assay with NCI-H460 lung, with HCT-116 colon and in the assay with K-562 leukemia was greater than 100 µM in each case. Moreover, the TGI in the assay on LOX IMVI melanoma, in the assay with A549 NSCLC, in the assay with SNB-19 CNS, in the assay with T-47D breast, in the assay on BT-549 breast and in the assay on HOP-62 NSCLC was greater than 100 µM each time. Further, the TGI in the assay with NCI-H522 lung, in the assay on NCI-H460 lung, in the assay on HCT-116 colon and with K-562 leukemia was greater than 100 µM in each case.

Regarding `COc1ccc(CCN2CCCN3C2=Nc2ccccc2S3(=O)=O)cc1`, the GI50 in the assay with LOX IMVI melanoma was 0.669 µM; in the assay with A549 NSCLC, 0.8 µM; with SNB-19 CNS it was 0.882 µM; with T-47D breast, 0.56 µM; with BT-549 breast, 0.923 µM; in the assay on HOP-62 NSCLC, 0.556 µM. The GI50 in the assay on NCI-H522 lung is 0.278 µM; in the assay on NCI-H460 lung, 0.429 µM; in the assay with HCT-116 colon it was 0.444 µM; with K-562 leukemia it was 0.196 µM. Besides, the TGI in the assay on LOX IMVI melanoma was greater than 100 µM; in the assay on A549 NSCLC it was greater than 100 µM; in the assay with SNB-19 CNS, greater than 100 µM; in the assay with T-47D breast, greater than 100 µM; in the assay on BT-549 breast it was 92.4 µM; in the assay on HOP-62 NSCLC it was greater than 100 µM. The TGI with NCI-H522 lung was 8.86 µM; with NCI-H460 lung, 44.1 µM; in the assay on HCT-116 colon, 16.4 µM; with K-562 leukemia it was greater than 100 µM.

On to `O=C1/C(=C\c2ccc(F)cc2)CN(C(=O)c2ccc([N+](=O)[O-])cc2)C/C1=C\c1ccc(F)cc1`, for which the GI50 was 0.373 µM in the assay on LOX IMVI melanoma; 3.63 µM with A549 NSCLC; 3.58 µM in the assay on SNB-19 CNS; 6.61 µM with T-47D breast; 2 µM with BT-549 breast; 2.56 µM in the assay on HOP-62 NSCLC. For the same molecule, the GI50 in the assay with NCI-H522 lung is 4.3 µM; in the assay with NCI-H460 lung, 4.26 µM; with HCT-116 colon it was 0.21 µM; in the assay with K-562 leukemia it was 0.915 µM. The TGI in the assay with LOX IMVI melanoma was 1.47 µM; in the assay with A549 NSCLC, greater than 77.3 µM; in the assay on SNB-19 CNS it was 49.1 µM; in the assay on T-47D breast, greater than 100 µM; in the assay with BT-549 breast, 4.41 µM; with HOP-62 NSCLC, 7.85 µM. For the same molecule, the TGI in the assay with NCI-H522 lung is 30.7 µM; in the assay on NCI-H460 lung, greater than 40.4 µM; with HCT-116 colon, 0.448 µM; with K-562 leukemia, greater than 43.2 µM.

For `CCNCCC1(CC)C(=O)NC(=O)NC1=O`, the TGI in the assay with LOX IMVI melanoma, in the assay with A549 NSCLC, in the assay with SNB-19 CNS, in the assay with T-47D breast, with BT-549 breast and in the assay on HOP-62 NSCLC was greater than 100 µM in each case. Moreover, the TGI in the assay on NCI-H522 lung, in the assay with NCI-H460 lung, in the assay on HCT-116 colon and with K-562 leukemia was greater than 100 µM each time.
